Measurements reported in article PMC7906907, “Targeting STAT3 by a small molecule suppresses pancreatic cancer progression” (Oncogene, 2021).

Columns and labels:
normal cells (HPNE, HAF) = test: MTS proliferation assay, normal cells; assay type: cell-based; settings: 48 h
Protocol: Fig. 4 N4 suppresses pancreatic cancer cell proliferation and migration and induces apoptosis. A Pancreatic cancer cells (CAPAN-2, PANC-1, MIAPACA-2, BXPC-3, HPAC, and CFPAC-1) and normal cells (HPNE, HAF) were incubated with the indicated concentration of N4 for 48 h. MTS assays were performed to detect the N4-mediated inhibition of cell proliferation. Data are shown as mean ± SD, *P < 0.05, **P < 0.01, ***P < 0.001, ****P < 0.0001, n.s. not significant by one-way ANOVA followed by multiple comparisons. B, C CAPAN-2, PANC-1, and MIAPACA-2 cells were treated with N4 (B) or C188-9 (C) for 7 days. The cells fixed and stained, and colony numbers were calculated. Experiments were carried out in triplicate with identical results obtained. […] Apoptotic cells were analyzed as described in Materials and Methods. […] In F, after 48 h transfection, transfected cells were seeded in 96-well plates, and cells were enumerated at day 1, day 2, and day 4, In G, different cells transfected with different siRNA were treated with the indicated concentrations of N4, and cell viability measured after a 48 h treatment. Data are expressed as mean ± SD, *P < 0.05, ***P < 0.001, n.s. not significant by one-way ANOVA followed by multiple comparisons. […] Data are expressed as mean ± SD, *P < 0.05, ***P < 0.001, n.s. not significant; Student’s t tests were performed. […]

STAT3–EGFR interaction = biological target: T1, STAT3–EGFR interaction (Homo sapiens, UniProt P40763); test: Co-immunoprecipitation, STAT3–EGFR interaction; assay type: cell-based; settings: PANC-1 cells, 2 μM, 24 h
T1 construct: endogenous in cells; host or cells: PANC-1
T1 sequence (P40763 2-770 limits assumed): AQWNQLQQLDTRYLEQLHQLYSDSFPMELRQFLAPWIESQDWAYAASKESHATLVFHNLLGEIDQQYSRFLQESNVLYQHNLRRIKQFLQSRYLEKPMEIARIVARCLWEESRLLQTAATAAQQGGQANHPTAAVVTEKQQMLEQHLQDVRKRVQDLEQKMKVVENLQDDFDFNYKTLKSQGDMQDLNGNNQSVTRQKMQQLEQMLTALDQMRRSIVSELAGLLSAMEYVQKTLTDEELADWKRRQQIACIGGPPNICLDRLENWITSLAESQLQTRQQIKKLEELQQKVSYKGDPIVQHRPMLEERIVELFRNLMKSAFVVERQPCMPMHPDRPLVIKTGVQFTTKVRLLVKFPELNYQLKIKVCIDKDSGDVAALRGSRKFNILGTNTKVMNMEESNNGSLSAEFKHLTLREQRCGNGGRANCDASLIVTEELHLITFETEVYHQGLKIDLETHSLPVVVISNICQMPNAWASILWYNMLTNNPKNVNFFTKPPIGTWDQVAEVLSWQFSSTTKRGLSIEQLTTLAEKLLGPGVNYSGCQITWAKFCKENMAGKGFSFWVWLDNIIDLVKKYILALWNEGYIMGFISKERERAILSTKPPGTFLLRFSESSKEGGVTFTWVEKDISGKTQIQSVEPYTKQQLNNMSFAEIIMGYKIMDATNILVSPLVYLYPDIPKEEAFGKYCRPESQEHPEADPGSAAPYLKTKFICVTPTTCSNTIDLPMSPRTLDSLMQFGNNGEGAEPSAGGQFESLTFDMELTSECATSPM
From the text: Fig. 3 N4 interacts with the STAT3-SH2 domain and interferes with the STAT3-EGFR and STAT3-NF-κB interactions. […] C–E The binding between N4 and STAT3 was examined in (C) SPR and (D) MST experiments. His-STAT3^127-722 protein was purified and used to examine the affinity between STAT3 and N4. (E) The binding between N4 and STAT3^SH2 was confirmed in MST assays. STAT3-SH2 protein was purified and labeled. N4 was serially diluted and mixed with equal volumes of labeled STAT3^SH2 protein. The MST signal was measured, and the data were analyzed by MO analysis software. F, G The FLAG-tag and HA-tag STAT3 expression plasmid was transfected into 293 T cells, followed by the addition of the indicated concentrations of N4. After 24 h, cells were lysed, and immunoprecipitation experiments were performed as described in Materials and Methods. H N4 represses STAT3 dimerization in pancreatic cancer cells. I After a 24 h treatment with 2 μM N4, pancreatic cancer cells were stimulated with IL-6 for 30 min. Cell lysates were immunoprecipitated with STAT3 overnight. The precipitates were washed, suspended in non-reducing sample buffer, and boiled for 10 min. The indicated antibodies were used for western blot assays. […]
Co-IP was performed as previously described. […] After overnight incubation, the precipitates were washed and analyzed using western blotting.

Compound: COc1cc2c(cc1C(=O)Nc1cccc3cccnc13)CCC1C(C)(C)C(=O)C(C#N)=C[C@]21C (some centres unmarked) [N4]
- effect on two normal cell types (normal cells (HPNE, HAF)): no significant effect
- STAT3–EGFR interaction (STAT3–EGFR interaction): inhibited
